Results published in PMC8212709 (Clinical and Translational Science, 2021).

Experiment: Phase I SRD/MRD safety and tolerability
Assay type: in vivo, human (healthy subjects)

SMILES: C=CC(=O)N1CC[C@H](Oc2nc(-c3n[nH]c(=O)[nH]3)cc3ccccc23)C1 [TAK‐020]
- Deaths (MRD 3.75 mg q.d. (n = 6)): 0 n (%)
- Serious TEAEs (MRD 3.75 mg q.d. (n = 6)): 0 n (%)
- Serious TEAEs, Not related (MRD 3.75 mg q.d. (n = 6)): 0 n (%)
- Serious TEAEs, Related (MRD 3.75 mg q.d. (n = 6)): 0 n (%)
- TEAEs (MRD 3.75 mg q.d. (n = 6)): 1 (16.7) n (%)
- TEAEs Leading to DC (MRD 3.75 mg q.d. (n = 6)): 0 n (%)
- TEAEs, Mild (MRD 3.75 mg q.d. (n = 6)): 1 (16.7) n (%)
- TEAEs, Moderate (MRD 3.75 mg q.d. (n = 6)): 0 n (%)
- TEAEs, Not related (MRD 3.75 mg q.d. (n = 6)): 0 n (%)
- TEAEs, Related (MRD 3.75 mg q.d. (n = 6)): 1 (16.7) n (%)
- TEAEs, Severe (MRD 3.75 mg q.d. (n = 6)): 0 n (%)
- Deaths (MRD 5.75 mg q.d. (n = 6)): 0 n (%)
- Serious TEAEs (MRD 5.75 mg q.d. (n = 6)): 0 n (%)
- Serious TEAEs, Not related (MRD 5.75 mg q.d. (n = 6)): 0 n (%)
- Serious TEAEs, Related (MRD 5.75 mg q.d. (n = 6)): 0 n (%)
- TEAEs (MRD 5.75 mg q.d. (n = 6)): 3 (50.0) n (%)
- TEAEs Leading to DC (MRD 5.75 mg q.d. (n = 6)): 0 n (%)
- TEAEs, Mild (MRD 5.75 mg q.d. (n = 6)): 3 (50.0) n (%)
- TEAEs, Moderate (MRD 5.75 mg q.d. (n = 6)): 0 n (%)
- TEAEs, Not related (MRD 5.75 mg q.d. (n = 6)): 1 (16.7) n (%)
- TEAEs, Related (MRD 5.75 mg q.d. (n = 6)): 2 (33.3) n (%)
- TEAEs, Severe (MRD 5.75 mg q.d. (n = 6)): 0 n (%)
- Deaths (MRD 13 mg q.d. (n = 6)): 0 n (%)
- Serious TEAEs (MRD 13 mg q.d. (n = 6)): 0 n (%)
- Serious TEAEs, Not related (MRD 13 mg q.d. (n = 6)): 0 n (%)
- Serious TEAEs, Related (MRD 13 mg q.d. (n = 6)): 0 n (%)
- TEAEs (MRD 13 mg q.d. (n = 6)): 3 (50.00) n (%)
- TEAEs Leading to DC (MRD 13 mg q.d. (n = 6)): 0 n (%)
- TEAEs, Mild (MRD 13 mg q.d. (n = 6)): 3 (50.0) n (%)
- TEAEs, Moderate (MRD 13 mg q.d. (n = 6)): 0 n (%)
- TEAEs, Not related (MRD 13 mg q.d. (n = 6)): 2 (33.3) n (%)
- TEAEs, Related (MRD 13 mg q.d. (n = 6)): 1 (16.7) n (%)
- TEAEs, Severe (MRD 13 mg q.d. (n = 6)): 0 n (%)
- Deaths (MRD 25 mg q.d. (n = 6)): 0 n (%)
- Serious TEAEs (MRD 25 mg q.d. (n = 6)): 0 n (%)
- Serious TEAEs, Not related (MRD 25 mg q.d. (n = 6)): 0 n (%)
- Serious TEAEs, Related (MRD 25 mg q.d. (n = 6)): 0 n (%)
- TEAEs (MRD 25 mg q.d. (n = 6)): 2 (33.3) n (%)
- TEAEs Leading to DC (MRD 25 mg q.d. (n = 6)): 0 n (%)
- TEAEs, Mild (MRD 25 mg q.d. (n = 6)): 2 (33.3) n (%)
- TEAEs, Moderate (MRD 25 mg q.d. (n = 6)): 0 n (%)
- TEAEs, Not related (MRD 25 mg q.d. (n = 6)): 2 (33.3) n (%)
- TEAEs, Related (MRD 25 mg q.d. (n = 6)): 0 n (%)
- TEAEs, Severe (MRD 25 mg q.d. (n = 6)): 0 n (%)
- Deaths (MRD 45 mg q.d. (n = 6)): 0 n (%)
- Serious TEAEs (MRD 45 mg q.d. (n = 6)): 0 n (%)
- Serious TEAEs, Not related (MRD 45 mg q.d. (n = 6)): 0 n (%)
- Serious TEAEs, Related (MRD 45 mg q.d. (n = 6)): 0 n (%)
- TEAEs (MRD 45 mg q.d. (n = 6)): 1 (16.7) n (%)
- TEAEs Leading to DC (MRD 45 mg q.d. (n = 6)): 0 n (%)
- TEAEs, Mild (MRD 45 mg q.d. (n = 6)): 1 (16.7) n (%)
- TEAEs, Moderate (MRD 45 mg q.d. (n = 6)): 0 n (%)
- TEAEs, Not related (MRD 45 mg q.d. (n = 6)): 1 (16.7) n (%)
- TEAEs, Related (MRD 45 mg q.d. (n = 6)): 0 n (%)
- TEAEs, Severe (MRD 45 mg q.d. (n = 6)): 0 n (%)
- Deaths (MRD 60 mg q.d. (n = 6)): 0 n (%)
- Serious TEAEs (MRD 60 mg q.d. (n = 6)): 0 n (%)
- Serious TEAEs, Not related (MRD 60 mg q.d. (n = 6)): 0 n (%)
- Serious TEAEs, Related (MRD 60 mg q.d. (n = 6)): 0 n (%)
- TEAEs (MRD 60 mg q.d. (n = 6)): 1 (16.7) n (%)
- TEAEs Leading to DC (MRD 60 mg q.d. (n = 6)): 0 n (%)
- TEAEs, Mild (MRD 60 mg q.d. (n = 6)): 1 (16.7) n (%)
- TEAEs, Moderate (MRD 60 mg q.d. (n = 6)): 0 n (%)
- TEAEs, Not related (MRD 60 mg q.d. (n = 6)): 1 (16.7) n (%)
- TEAEs, Related (MRD 60 mg q.d. (n = 6)): 0 n (%)
- TEAEs, Severe (MRD 60 mg q.d. (n = 6)): 0 n (%)
- Deaths (MRD Overall TAK‐020 (N = 36)): 0 n (%)
- Serious TEAEs (MRD Overall TAK‐020 (N = 36)): 0 n (%)
- Serious TEAEs, Not related (MRD Overall TAK‐020 (N = 36)): 0 n (%)
- Serious TEAEs, Related (MRD Overall TAK‐020 (N = 36)): 0 n (%)
- TEAEs (MRD Overall TAK‐020 (N = 36)): 11 (30.6) n (%)
- TEAEs Leading to DC (MRD Overall TAK‐020 (N = 36)): 0 n (%)
- TEAEs, Mild (MRD Overall TAK‐020 (N = 36)): 11 (30.6) n (%)
- TEAEs, Moderate (MRD Overall TAK‐020 (N = 36)): 0 n (%)
- TEAEs, Not related (MRD Overall TAK‐020 (N = 36)): 7 (19.4) n (%)
- TEAEs, Related (MRD Overall TAK‐020 (N = 36)): 4 (11.1) n (%)
- TEAEs, Severe (MRD Overall TAK‐020 (N = 36)): 0 n (%)
- percentage of subjects who had TEAEs (MRD, overall TAK‐020 group): 30.6%
- subjects with study treatment‐related TEAEs (MRD, overall TAK‐020 group (four subjects)): 11.1%
- Deaths (SRD Overall TAK‐020 (N = 54)): 0 n (%)
- Serious TEAEs (SRD Overall TAK‐020 (N = 54)): 0 n (%)
- Serious TEAEs, Not related (SRD Overall TAK‐020 (N = 54)): 0 n (%)
- Serious TEAEs, Related (SRD Overall TAK‐020 (N = 54)): 0 n (%)
- TEAEs (SRD Overall TAK‐020 (N = 54)): 6 (11.1) n (%)
- TEAEs Leading to DC (SRD Overall TAK‐020 (N = 54)): 0 n (%)
- TEAEs, Mild (SRD Overall TAK‐020 (N = 54)): 6 (11.1) n (%)
- TEAEs, Moderate (SRD Overall TAK‐020 (N = 54)): 0 n (%)
- TEAEs, Not related (SRD Overall TAK‐020 (N = 54)): 3 (5.6) n (%)
- TEAEs, Related (SRD Overall TAK‐020 (N = 54)): 3 (5.6) n (%)
- TEAEs, Severe (SRD Overall TAK‐020 (N = 54)): 0 n (%)
- clinical laboratory test results (including liver function tests), vital sign findings, cytopenias, or ECG results reported as a TEAE (SRD and MRD parts): No subject
- Deaths (SRD single dose 0.1 mg (n = 6)): 0 n (%)
- Serious TEAEs (SRD single dose 0.1 mg (n = 6)): 0 n (%)
- Serious TEAEs, Not related (SRD single dose 0.1 mg (n = 6)): 0 n (%)
- Serious TEAEs, Related (SRD single dose 0.1 mg (n = 6)): 0 n (%)
